Patent publication US20150218563A1, “COMPOSITIONS AND METHODS FOR MODULATION OF RORGAMMAT FUNCTIONS” (priority 2004, published 2015)

Test system: mRORγt
Assay: shRNA inhibition of mRORγt expression in AKR1 cells, monitored by Western blot
Assay type: cell-based, mouse
Conditions: AKR1 cells infected with retrovirus encoding the shRNA vs empty retroviral vector, HMG-1 loading control
Excerpt: FIG. 42. Delivery of siRNA Hairpins by a Retroviral vector. […] After the AKR1 cells were infected with these vectors, mRORγt expression was monitored by Western blot. HMG-1 was used as an internal loading control. […] The effect lasted for at least two to three weeks, as shown in the lower panel.
Two shRNA molecules were generated using the DNA sequence of SEQ ID NO: 3 (mouse RORγt). In particular, the nucleotides from position 358-378 of SEQ ID NO: 3 and from position 1269-1289 of SEQ ID NO: 3 (mouse RORγt) were used to generate shRNA molecules. These sequences are as follows:
When tested for the ability to inhibit expression of RORγt, as well as expression of a target molecule for RORgt, significant inhibition of expression was observed. (See FIGS. 42 and 43).

| Sequence | inhibition of RORγt expression |
| --- | --- |
| GGAACTGGCTTTCCATCATCA (expressed or natural sequence) [SEQ ID NO: 10] | shown to inhibit the expression of RORγt |
| GGAGCAGACACACTTACATAC (chemistry not given here) [SEQ ID NO: 9] | shown to inhibit the expression of RORγt |
